Here are results for 8 molecules from patent US6255497A, “Method for the inhibition of ALDH-I useful in the treatment of alcohol dependence or alcohol abuse” (priority 1998, dated 2001).

Values after ≈ are worked out from the molar mass of the structure shown. Read-outs that look alike come from different tables or passages of the source.

One series concerns golden hamsters. As to the kind of experiment: Dose effect on free choice ethanol intake in golden hamsters, i.p. It counts as in vivo, golden hamster. An excerpt:
It is common practice in quantitative drug studies with rodents to use intraperitoneal (i.p.) administration to deliver drug doses accurately (Goodman and Gilman, 1975, The Pharmacological Basis of Therapeutics, 5th ed., Macmillan, N.Y., p. 8). In particular, this method avoids variability introduced by technical difficulties of oral administration via feeding (full versus empty stomach, etc.), variations in drug transport in the gastrointestinal tract (variations in intestinal fauna and flora, individual variations in absorption rate expected of outbred animals, etc.) and other factors. […] As a control 1 ml of sterile saline was injected i.p. daily during the baseline period (typically 7-9 days) that establishes drinking preference without the drug. Saline injection i.p. had no effect on the drinking behavior of golden hamsters. Ethanol was provided as a 20% solution. Hamsters could be used more than once (but were not used more than three times) in a cycle of baseline saline injections followed by drug injections, each cycle with the drug at a different dose.
The response to daidzin treatment was computed as:
% Response=(Vo -Vd)×100/Vo

The nature of series [1]: Plasma drug concentration versus time after a single 10 mg dose. The series is classed as in vivo. The settings on record: golden hamster. An excerpt:
Five hours later the plasma concentrations of both inhibitors were still above […], far above their competitive inhibition constants for ALDH-I.

Series [2] has as its target T1, ALDH-I (Homo sapiens, UniProt P05091).
T1 sequence (P05091 18-517): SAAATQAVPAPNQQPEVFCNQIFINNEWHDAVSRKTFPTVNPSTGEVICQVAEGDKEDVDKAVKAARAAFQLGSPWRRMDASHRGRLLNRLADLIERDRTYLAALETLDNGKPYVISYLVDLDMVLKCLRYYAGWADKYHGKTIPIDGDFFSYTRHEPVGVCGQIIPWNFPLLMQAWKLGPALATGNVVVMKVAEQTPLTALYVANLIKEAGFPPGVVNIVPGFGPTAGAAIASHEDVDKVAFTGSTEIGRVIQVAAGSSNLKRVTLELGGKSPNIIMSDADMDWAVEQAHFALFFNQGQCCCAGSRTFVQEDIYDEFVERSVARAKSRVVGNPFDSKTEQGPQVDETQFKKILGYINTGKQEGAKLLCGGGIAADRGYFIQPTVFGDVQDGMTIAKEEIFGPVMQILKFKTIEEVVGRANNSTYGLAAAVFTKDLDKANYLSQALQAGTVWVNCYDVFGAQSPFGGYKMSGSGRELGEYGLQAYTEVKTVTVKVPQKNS
As to the kind of experiment: Competitive inhibition of ALDH-I with acetaldehyde as substrate, progress curve method. It counts as biochemical. Set-up: A liver sample (50 g wet weight) with the usual Caucasian ALDH phenotype (both ALDH-I and ALDH-II present); from tissue; host or cells: human liver (autopsy), purified by CM-52, AMP-agarose and DEAE HPLC. An excerpt: The progress curve method described by Klyosov and Berezin, 1972, Biokhimiya (Engl. transl.), Plenum, New York, 22: 141-151, was used instead of the initial velocilty method of Example 3 to obtain precis* values for inhibition constants for ALDH-I with acetaldehyde as substrate and the very tight binding novel inhibitors (Table VI).

Another series is described as follows: physchem. The note with it: water.
The target in series [3] is T2, ALDH-II (Homo sapiens, UniProt P00352).
T2 sequence (P00352 1-501): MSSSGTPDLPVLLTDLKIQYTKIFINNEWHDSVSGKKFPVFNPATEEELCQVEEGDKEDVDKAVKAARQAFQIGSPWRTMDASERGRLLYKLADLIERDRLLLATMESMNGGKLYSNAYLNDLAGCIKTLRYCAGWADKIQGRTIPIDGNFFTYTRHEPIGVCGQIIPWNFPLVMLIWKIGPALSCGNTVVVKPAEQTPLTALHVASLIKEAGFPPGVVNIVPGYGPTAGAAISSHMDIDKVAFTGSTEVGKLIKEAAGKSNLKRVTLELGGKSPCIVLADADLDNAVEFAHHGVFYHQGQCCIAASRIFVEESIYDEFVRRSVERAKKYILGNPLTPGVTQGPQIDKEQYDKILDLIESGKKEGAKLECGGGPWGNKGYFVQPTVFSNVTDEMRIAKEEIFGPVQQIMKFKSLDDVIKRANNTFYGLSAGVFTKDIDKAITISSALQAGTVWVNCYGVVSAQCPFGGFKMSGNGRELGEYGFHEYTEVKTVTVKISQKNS
The experiment in a line: Competitive inhibition of ALDH-II with acetaldehyde as substrate. The settings on record: acetaldehyde as substrate, competitive; read-out: Ki, ALDH-II. The series is classed as biochemical. Set-up: A liver sample (50 g wet weight) with the usual Caucasian ALDH phenotype (both ALDH-I and ALDH-II present); from tissue; host or cells: human liver (autopsy), purified by CM-52, AMP-agarose and DEAE HPLC.

The conditions of series [4]: intravenous, mice; cited from earlier work.
A further series has as its system ALDH-I or ALDH-II. As to the kind of experiment: Survey of structurally related compounds for ALDH inhibition. It counts as biochemical, human. The procedure: For the study of the inhibition of ALDH-I by structurally related compounds to generate the data shown in Tables IV and V, each individual compound was dissolved at different concentrations in methanol and was added to the assay medium as 10 μL aliquots. For controls, 10 […] of methanol was added to the assay medium. In a standard ALDH-I assay, the assay medium contains 0.1 M sodium pyrophosphate pH 9.5, 0.15 M KCl, 1 mM NAD^+, 1% methanol, 5 μM acetaldehyde, 5-10 nM ALDH-I and various concentrations of inhibitor. The enzyme reaction rates were measured by monitoring the production of NADH at 340 nm (ε=6.22 mM^-1 cm^-1) with a Varian Cary 219 spectrophotometer thermostated at 25° C. (Fong et al., 1989, supra). The inhibition of ALDH-I by the inhibitors was calculated as: [formula]
where Vo is the enzyme reaction rate measured in the absence of inhibitor, and where Vi is the enzyme reaction rate measured in the presence of inhibitor. […] IC50 values are related to the underlying Ki values.

For series [5] the following is noted: two human volunteers, after 60 hours; cited from earlier work.
The test system of another series is ADH isozymes. As to the kind of experiment: Inhibition of ADH. It counts as biochemical, human.
For series [6], the system named is class I ADH isozymes containing at least one γ-subunit. The settings on record: cited from earlier work.
For series [7], the system named is ALDH-II. The note with it: cited from earlier work.
The conditions of series [8]: cited from earlier work.
Series [9] has as its system alcohol consumption. The settings on record: rat, in vivo; cited from earlier work.
The test system of series [10] is ALDH-II. The note with it: via reactive product of catabolism; cited from earlier work.
For series [11] the following is noted: experimental animals; cited from earlier work.
In series [12] the test system is ALDH. The settings on record: cited from earlier work.
Another series relates to euphoria. The settings on record: double-blind study in humans; cited from earlier work.
Series [13] concerns ALDH-I. The settings on record: via reactive product of catabolism; cited from earlier work.
For series [14], the system named is ALDH-I. The settings on record: cited from earlier work.
Series [15] relates to alcohol consumption. The settings on record: placebo-controlled clinical trials; cited from earlier work.
Series [16] has as its system dopamine-β-hydroxylase, microsomal mixed function oxidases and other sulfhydryl-containing enzymes. The settings on record: cited from earlier work.
In series [17] the test system is ALDH-I. The note with it: cited from earlier work. This is another data set of the same source.
The subject of series [18] is ALDH. The note with it: cited from earlier work. The source holds these as a separate data set.
Series [19] relates to ALDH-II. The settings on record: high Km cytosolic isozyme; cited from earlier work.
The next series relates to human class IV ADH. The note with it: cited from earlier work.
Substrate in series [20]: C=O
As to the kind of experiment: purified protein, by the assay type. The note with it: pH 9.5; 25.0 °C.

For orientation: Ki means the dissociation constant of the complex between target and ligand, obtained from inhibition or displacement. As usually defined, the solubility is the dissolved amount per volume that the medium holds. Lower therefore signals little dissolved substance. As a reminder, the Km is the substrate concentration at which the rate is half of its maximum.

For the molecule `O=C(O)CCCCCCOc1ccc2c(=O)c(-c3ccc(O)cc3)coc2c1` [Daidzein 7-(ω-carboxyhexyl) ether, daidzein 7-(ω-carboxyhexyl) ether], the “suppression of alcohol intake, hamster B7” value in the series on golden hamsters (10 mg/day, i.p., trained hamster B7) is 69%. In addition, in the series on golden hamsters (10 mg/day, i.p., trained hamster E23), the “suppression of alcohol intake, hamster E23” value came to 72%. Also, the “potency relative to daidzin, suppression of alcohol intake” value in the series with golden hamsters (assuming a dose response slope similar to that of daidzin) is on record as “not more than twice as potent as daidzin”. Moreover, in [1] (i.p.), the “time to maximal plasma concentration after injection” value is listed as “within about an hour after injection”. Further, the Cmax in series [1] (plasma, ip, read-out: maximal plasma concentration) was determined as 4.5 µM. Moreover, the Ki at ALDH-I [2] was 9 nM; on ALDH-II [3], 215 nM. Also, the concentration in solution in the series “physchem” (solubility) was 13 mM (≈ 4970 µg/mL).
As for `O=c1c(-c2ccc(O)cc2)coc2cc(O)ccc12` [Daidzein], the half-life result in series [4] is given as “on the order of one hour”. Also, the “ALDH inhibition” value in the series on ALDH-I or ALDH-II is on record as “does not inhibit ALDH”. Besides, the “excretion in urine and feces” value in series [5] is “little daidzein had appeared in urine and feces after 60 hours”. The ADH inhibition entry in the series on ADH isozymes is reported as “selectively inhibits certain ADH isozymes”.
Turning to `C[C@]12CC[C@H]3[C@@H](CCC4=CC(=O)CC[C@@]43C)[C@@H]1CC[C@@H]2O` [testosterone], in series [6], the “selective inhibition of γ-subunit class I ADH” value is given as “selectively inhibited”.
As to `N#CN` [cyanamide], the “inhibition of ALDH-II in vitro” value in the series on ALDH-II [7] is reported as “Neither ALDH-I (the low Km isozyme) nor ALDH-II (the high Km isozyme) are inhibited in vitro”. Moreover, the liver injury entry in series [8] (alcoholics treated with cyanamide) is “liver injury, including generation of ground-glass inclusion bodies in liver cells”. For the same molecule, in [8] (in vivo), the cardiotoxic effects entry is “cardiotoxic effects, including hypotension and even cardiac death”. In addition, the “alcohol consumption after alcohol deprivation” value with alcohol consumption [9] is reported as “increase in alcohol consumption”. Moreover, the “inhibition of ALDH-II in vivo” value in the series with ALDH-II [10] is “inhibits both isozymes”. The antithyroid activity result in series [11] is recorded as “significant antithyroid activity”. For the same molecule, in the series with ALDH [12] (in vivo), the “reversibility of ALDH inhibition” value was “reversible” and the “time of maximal ALDH inhibition after drug administration” value was 1 to 2 h. Further, in the series with ALDH [12] (within 24 hours), the “restoration of ALDH activity within 24 hours” value is reported as 80%. Moreover, the “effect with low doses of alcohol” value in the series with euphoria was “induces and enhances euphoria”. Besides, the “inhibition of ALDH-I in vivo” value with ALDH-I [13] is reported as “inhibits both isozymes”. The “inhibition of ALDH-I in vitro” value with ALDH-I [14] is reported as “Neither ALDH-I (the low Km isozyme) nor ALDH-II (the high Km isozyme) are inhibited in vitro”.
With `CCN(CC)C(=S)SSC(=S)N(CC)CC` [disulfiram, tetraethylthiuram disulfide], the “reduction of alcohol consumption vs placebo” value with alcohol consumption [15] was “no more effective than the placebo control”. The “skin toxicity and neuropathy” value in series [8] (in vivo) is reported as “peripheral neuropathy”. Besides, in [16], the “specificity of enzyme inhibition” value is on record as “broadly acting but non-specific inhibitor”. In the series with ALDH-I [17] (major mitochondrial isozyme), the “inhibition of ALDH-I in vitro” value is “only slightly”. In addition, the “inhibition of ALDH-I in vitro in presence of mercaptans” value with ALDH-I [17] (trace amounts of 2-mercaptoethanol or methanethiol) was “inactivated”. In the series with ALDH [18], the “reversibility of ALDH inhibition in vivo” value is recorded as “irreversible” and the “time over which ALDH is inhibited in vivo” value was 12 h. Moreover, the “time to restoration of ALDH activity” value in the series with ALDH [18] (in vivo, de novo enzyme synthesis) is on record as at least 6 days. The “effect with low doses of alcohol” value in the series with euphoria was “induces and enhances euphoria”. In addition, the “inhibition of ALDH-II in vitro” value with ALDH-II [19] is given as “potent inhibitor”.
`CCOc1ccc2c(=O)c(-c3ccc(O)cc3)coc2c1` [Daidzein 7-ethyl ether]: the values for the Ki on ALDH-I [2] and at ALDH-II [3] were 38 nM and 440 nM, respectively.
In the case of `CCO` [ethanol], in the series on human class IV ADH, the Km is 41 mM.

B1: human ALDH-II (Homo sapiens) (protein)
chain: MSSSGTPDLPVLLTDLKIQYTKIFINNEWHDSVSGKKFPVFNPATEEELCQVEEGDKEDVDKAVKAARQAFQIGSPWRTMDASERGRLLYKLADLIERDRLLLATMESMNGGKLYSNAYLNDLAGCIKTLRYCAGWADKIQGRTIPIDGNFFTYTRHEPIGVCGQIIPWNFPLVMLIWKIGPALSCGNTVVVKPAEQTPLTALHVASLIKEAGFPPGVVNIVPGYGPTAGAAISSHMDIDKVAFTGSTEVGKLIKEAAGKSNLKRVTLELGGKSPCIVLADADLDNAVEFAHHGVFYHQGQCCIAASRIFVEESIYDEFVRRSVERAKKYILGNPLTPGVTQGPQIDKEQYDKILDLIESGKKEGAKLECGGGPWGNKGYFVQPTVFSNVTDEMRIAKEEIFGPVQQIMKFKSLDDVIKRANNTFYGLSAGVFTKDIDKAITISSALQAGTVWVNCYGVVSAQCPFGGFKMSGNGRELGEYGFHEYTEVKTVTVKISQKNS
In the case of B1, the Michaelis constant (Km) in [20] is 6.6 mM.
